Reference: patent publication US9156818B2, “Hepatitis C virus inhibitors” (Enanta Pharmaceuticals, Inc., priority 2009, dated 2015)

test system: HCV 1b genotype replicon; test: HCV genotype-1b replicon assay (qRT-PCR or luciferase); assay type: cell-based; conditions: Hepatitis C virus; HCV 1b replicon cell line (SGR 11-7 or Huh-luc/neo-ET); qRT-PCR or luciferase readout; read-out: Genotype-1b replicon EC50 Range
From the text: HCV replicon cell lines (kindly provided by R. Bartenschlager) isolated from colonies as described by Lohman et. al. (Lohman et al. (1999) Science 285: 110-113, expressly incorporated by reference in its entirety) and used for all experiments. The HCV replicon has the nucleic acid sequence set forth in EMBL Accession No.: AJ242651, the coding sequence of which is from nucleotides 1801 to 8406.
The coding sequence of the published HCV replicon was synthesized and subsequently assembled in a modified plasmid pBR322 (Promega, Madison, Wis.) using standard molecular biology techniques. One replicon cell line (“SGR 11-7”) stably expresses HCV replicon RNA which consists of (i) the HCV 5′UTR fused to the first 12 amino acids of the capsid protein, (ii) the neomycin phosphotransferase gene (neo), (iii) the IRES from encephalomyocarditis virus (EMCV), and (iv) HCV NS2 to NS5B genes and the HCV 3′UTR. Another replicon cell line (“Huh-luc/neo-ET”) described by Vrolijk et. al. (Vrolijk et. al. (2003) Journal of Virological Methods 110:201-209, expressly incorporated by reference in its entirety) stably expresses HCV replicon RNA which consists of (i) the HCV 5′UTR fused to the first 12 amino acids of the capsid protein, (ii) the firefly luciferase reporter gene, (iii) the ubiquitin gene, (iv) the neomycin phosphotransferase gene (neo), (v) the IRES from encephalomyocarditis virus (EMCV), and (vi) HCV NS3 to NS5B genes that harbor cell culture adaptive mutations (E1202G, T12801, K1846T) and the HCV 3′UTR.
These cell lines were maintained at 37° C., 5% CO2, 100% relative humidity in DMEM (Cat#11965-084, Invitrogen), with 10% fetal calf serum (“FCS”, Invitrogen), 1% non-essential amino acids (Invitrogen), 1% of Glutamax (Invitrogen), 1% of 100× penicillin/streptomycin (Cat#15140-122, Invitrogen) and Geneticin (Cat#10131-027, Invitrogen) at 0.75 mg/ml or 0.5 mg/ml for 11-7 and Huh-luc/neo-ET cells, respectively.
EC50 values of single agent compounds and combinations were determined by HCV RNA detection using quantitative RT-PCR, according to the manufacturer's instructions, with a TAQMAN® One-Step RT-PCR Master Mix Reagents Kit (Cat# AB 4309169, Applied Biosystems) on an ABI Model 7500 thermocycler. The TaqMan primers used for detecting and quantifying HCV RNA were obtained from Integrated DNA Technologies. HCV RNA was normalized to GAPDH RNA levels in drug-treated cells, which was detected and quantified using the Human GAPDH Endogenous Control Mix (Applied Biosystems, AB 4310884E). Total cellular RNA was purified from 96-well plates using the RNAqueous 96 kit (Ambion, Cat# AM1812). Chemical agent cytotoxicity was evaluated using an MTS assay according to the manufacturer's directions (Promega).
Since clinical drug resistance often develops in viral infections following single agent therapies, there is a need to assess the additive, antagonistic, or synergistic properties of combination therapies. We use the HCV replicon system to assess the potential use of the compound of the present invention or in combination therapies with Interferon alpha, cyclosporine analogs and inhibitors targeting other HCV proteins. The acute effects of a single or combinations of drugs are studied in the “Huh-luc/neo-ET” replicon with each chemical agent titrated in an X or Y direction in a 6 point two-fold dilution curve centered around the EC50 of each drug. Briefly, replicon cells are seeded at 7,000 cells per well in 90 ul DMEM (without phenol red, Invitrogen Cat.#31053-036) per well with 10% FCS, 1% non-essential amino acids, 1% of Glutamax and 1% of 1 OOX penicillin/streptomycin and incubated overnight at 37° C., 5% CO2, 100% relative humidity. […]

**Q.** Which EC50 does the source give for COC(=O)N[C@H](C(=O)N1CCC[C@H]1c1ncc(-c2ccc(-c3ccc(-c4cnc([C@@H]5[C@H]6CC[C@H](C6)N5C(=O)[C@@H](NC(=O)OC)C(C)C)[nH]4)cc3)cc2)[nH]1)C(C)C [Example 83] here?
**A.** < 1 nM

**Q.** With COC(=O)N[C@H](C(=O)N1CCC[C@H]1c1ncc(-c2ccc(-c3ccc(-c4cnc([C@H]5[C@@H]6CC[C@@H](C6)N5C(=O)[C@@H](NC(=O)OC)C(C)C)[nH]4)cc3)cc2)[nH]1)C(C)C [Example 246] as the compound, how does the EC50 read?
**A.** < 1 nM

**Q.** For COC(=O)N[C@H](C(=O)N1CCC[C@H]1c1nc2cc(C#Cc3ccc(-c4cnc([C@@H]5[C@H]6CC[C@H](C6)N5C(=O)[C@@H](NC(=O)OC)C(C)C)[nH]4)cc3)ccc2[nH]1)C(C)C [Example 319], which EC50 is on record?
**A.** < 1 nM

**Q.** COC(=O)N[C@H](C(=O)N1CCC[C@H]1c1nc(-c2ccc(C#Cc3ccc4[nH]c([C@@H]5[C@H]6CC[C@H](C6)N5C(=O)[C@@H](NC(=O)OC)C(C)C)nc4c3)cc2)c[nH]1)C(C)C [Example 338] was tested. Which EC50 did it give?
**A.** < 1 nM

**Q.** For COC(=O)N[C@H](C(=O)N1CCC[C@H]1c1nc(-c2ccc(C#Cc3ccc4[nH]c([C@@H]5C6CCC(CC6)N5C(=O)[C@@H](NC(=O)OC)C(C)C)nc4c3)cc2)c[nH]1)C(C)C [Example 344], which EC50 is on record?
**A.** < 1 nM

**Q.** For COC(=O)N[C@H](C(=O)N1[C@@H]2CC[C@@H](C2)[C@H]1c1ncc(-c2ccc(C#Cc3ccc4[nH]c([C@@H]5[C@H]6CC[C@H](C6)N5C(=O)[C@@H](NC(=O)OC)C(C)C)nc4c3)cc2)[nH]1)C(C)C [Example 346], which EC50 is on record?
**A.** < 1 nM

**Q.** COC(=O)N[C@H](C(=O)N1CCC[C@H]1c1nc(-c2ccc(-c3ccc(-c4ccc5[nH]c([C@@H]6[C@H]7CC[C@H](C7)N6C(=O)[C@@H](NC(=O)OC)C(C)C)nc5c4)cc3)cc2)c[nH]1)C(C)C [Example 348] was tested. Which EC50 did it give?
**A.** < 1 nM

**Q.** Which EC50 does the source give for COC(=O)N[C@H](C(=O)N1CCC[C@H]1c1nc(-c2ccc3cc(-c4ccc5[nH]c([C@@H]6[C@H]7CC[C@H](C7)N6C(=O)[C@@H](NC(=O)OC)C(C)C)nc5c4)ccc3c2)c[nH]1)C(C)C [Example 350] here?
**A.** < 1 nM
